Laboratory results as given in the NIST ThermoML archive (doi:10.1016/j.tca.2005.11.041).

Assay: excess molar enthalpy (molar enthalpy of mixing); xn = mol fraction of the nth substance listed
Conditions: Liquid, Flow calorimetry

COC=O [methyl methanoate] + CC(C)O
298.15 K
Conditions | excess molar enthalpy [kJ/mol]
5000 kPa, x1 = 0.0399 | 0.3546
5000 kPa, x1 = 0.0822 | 0.7002
5000 kPa, x1 = 0.1235 | 0.9856
5000 kPa, x1 = 0.1656 | 1.233
5000 kPa, x1 = 0.2102 | 1.444
5000 kPa, x1 = 0.2556 | 1.622
5000 kPa, x1 = 0.3 | 1.763
5000 kPa, x1 = 0.3471 | 1.871
5000 kPa, x1 = 0.3951 | 1.949
5000 kPa, x1 = 0.444 | 1.99
5000 kPa, x1 = 0.4938 | 1.998
5000 kPa, x1 = 0.5447 | 1.978
5000 kPa, x1 = 0.5965 | 1.923
5000 kPa, x1 = 0.6494 | 1.823
5000 kPa, x1 = 0.7055 | 1.67
5000 kPa, x1 = 0.7606 | 1.488
5000 kPa, x1 = 0.8191 | 1.227
5000 kPa, x1 = 0.8766 | 0.9332
5000 kPa, x1 = 0.9376 | 0.5078
10000 kPa, x1 = 0.0398 | 0.359
10000 kPa, x1 = 0.082 | 0.7007
10000 kPa, x1 = 0.1232 | 0.9855
10000 kPa, x1 = 0.1651 | 1.228
10000 kPa, x1 = 0.2096 | 1.442
10000 kPa, x1 = 0.2549 | 1.616
10000 kPa, x1 = 0.2993 | 1.751
10000 kPa, x1 = 0.3463 | 1.859
10000 kPa, x1 = 0.3943 | 1.935
10000 kPa, x1 = 0.4432 | 1.976
10000 kPa, x1 = 0.493 | 1.986
10000 kPa, x1 = 0.5439 | 1.968
10000 kPa, x1 = 0.5957 | 1.906
10000 kPa, x1 = 0.6487 | 1.809
10000 kPa, x1 = 0.7048 | 1.658
10000 kPa, x1 = 0.76 | 1.469
10000 kPa, x1 = 0.8186 | 1.214
10000 kPa, x1 = 0.8762 | 0.9053
10000 kPa, x1 = 0.9374 | 0.4938

COC=O [methyl methanoate] + CCC(C)O
excess molar enthalpy [kJ/mol], 298.15 K
Conditions | 5000 kPa | 10000 kPa
x1 = 0.0501 | 0.4541 | –
x1 = 0.0996 | – | 0.8969
x1 = 0.1 | 0.8606 | –
x1 = 0.1496 | 1.193 | –
x1 = 0.15 | – | 1.215
x1 = 0.1994 | – | 1.488
x1 = 0.2 | 1.472 | –
x1 = 0.2493 | – | 1.709
x1 = 0.2496 | 1.69 | –
x1 = 0.2997 | – | 1.884
x1 = 0.2999 | 1.86 | –
x1 = 0.3504 | – | 2.007
x1 = 0.3508 | 1.985 | –
x1 = 0.3993 | – | 2.091
x1 = 0.4004 | 2.061 | –
x1 = 0.4503 | 2.104 | –
x1 = 0.4504 | – | 2.132
x1 = 0.4992 | – | 2.134
x1 = 0.5003 | 2.108 | –
x1 = 0.5501 | – | 2.097
x1 = 0.5505 | 2.075 | –
x1 = 0.6006 | 2.005 | 2.03
x1 = 0.6505 | 1.913 | –
x1 = 0.6508 | – | 1.919
x1 = 0.7002 | 1.763 | –
x1 = 0.7003 | – | 1.771
x1 = 0.7491 | – | 1.592
x1 = 0.7494 | 1.593 | –
x1 = 0.7997 | – | 1.354
x1 = 0.8004 | 1.374 | –
x1 = 0.8494 | – | 1.081
x1 = 0.8509 | 1.09 | –
x1 = 0.9006 | 0.7682 | –
x1 = 0.9008 | – | 0.7291
x1 = 0.9495 | 0.4154 | –

COC=O [methyl methanoate] + CCCCCO
298.15 K
Conditions | excess molar enthalpy [kJ/mol]
5000 kPa, x1 = 0.0507 | 0.5503
5000 kPa, x1 = 0.0997 | 0.9893
5000 kPa, x1 = 0.1503 | 1.352
5000 kPa, x1 = 0.2004 | 1.629
5000 kPa, x1 = 0.2494 | 1.839
5000 kPa, x1 = 0.2991 | 2
5000 kPa, x1 = 0.3496 | 2.114
5000 kPa, x1 = 0.4005 | 2.183
5000 kPa, x1 = 0.4488 | 2.208
5000 kPa, x1 = 0.4998 | 2.198
5000 kPa, x1 = 0.5506 | 2.134
5000 kPa, x1 = 0.6009 | 2.063
5000 kPa, x1 = 0.6503 | 1.943
5000 kPa, x1 = 0.6986 | 1.803
5000 kPa, x1 = 0.7492 | 1.615
5000 kPa, x1 = 0.7983 | 1.381
5000 kPa, x1 = 0.8497 | 1.099
5000 kPa, x1 = 0.8992 | 0.7573
5000 kPa, x1 = 0.9509 | 0.3567
10000 kPa, x1 = 0.0505 | 0.5386
10000 kPa, x1 = 0.0994 | 0.9773
10000 kPa, x1 = 0.1499 | 1.337
10000 kPa, x1 = 0.1998 | 1.615
10000 kPa, x1 = 0.251 | 1.833
10000 kPa, x1 = 0.3009 | 1.992
10000 kPa, x1 = 0.3488 | 2.106
10000 kPa, x1 = 0.3997 | 2.172
10000 kPa, x1 = 0.4509 | 2.198
10000 kPa, x1 = 0.499 | 2.187
10000 kPa, x1 = 0.5498 | 2.141
10000 kPa, x1 = 0.6001 | 2.067
10000 kPa, x1 = 0.6496 | 1.95
10000 kPa, x1 = 0.7017 | 1.788
10000 kPa, x1 = 0.7486 | 1.611
10000 kPa, x1 = 0.802 | 1.371
10000 kPa, x1 = 0.8493 | 1.101
10000 kPa, x1 = 0.8988 | 0.762
10000 kPa, x1 = 0.9507 | 0.345

COC=O [methyl methanoate] + CCCCO
298.15 K
Conditions | excess molar enthalpy [kJ/mol]
5000 kPa, x1 = 0.0501 | 0.4421
5000 kPa, x1 = 0.1 | 0.8313
5000 kPa, x1 = 0.1496 | 1.145
5000 kPa, x1 = 0.2 | 1.401
5000 kPa, x1 = 0.2496 | 1.597
5000 kPa, x1 = 0.2999 | 1.748
5000 kPa, x1 = 0.3508 | 1.852
5000 kPa, x1 = 0.4004 | 1.921
5000 kPa, x1 = 0.4503 | 1.95
5000 kPa, x1 = 0.5003 | 1.947
5000 kPa, x1 = 0.5505 | 1.91
5000 kPa, x1 = 0.6006 | 1.841
5000 kPa, x1 = 0.6505 | 1.73
5000 kPa, x1 = 0.7002 | 1.593
5000 kPa, x1 = 0.7494 | 1.431
5000 kPa, x1 = 0.8004 | 1.212
5000 kPa, x1 = 0.8509 | 0.971
5000 kPa, x1 = 0.9006 | 0.6776
5000 kPa, x1 = 0.9495 | 0.345
10000 kPa, x1 = 0.05 | 0.4411
10000 kPa, x1 = 0.0997 | 0.8281
10000 kPa, x1 = 0.1506 | 1.149
10000 kPa, x1 = 0.1994 | 1.396
10000 kPa, x1 = 0.2505 | 1.597
10000 kPa, x1 = 0.2992 | 1.742
10000 kPa, x1 = 0.35 | 1.848
10000 kPa, x1 = 0.3996 | 1.909
10000 kPa, x1 = 0.4495 | 1.941
10000 kPa, x1 = 0.4995 | 1.935
10000 kPa, x1 = 0.5497 | 1.896
10000 kPa, x1 = 0.5998 | 1.822
10000 kPa, x1 = 0.6498 | 1.717
10000 kPa, x1 = 0.6995 | 1.586
10000 kPa, x1 = 0.7511 | 1.41
10000 kPa, x1 = 0.7999 | 1.205
10000 kPa, x1 = 0.8505 | 0.9554
10000 kPa, x1 = 0.9003 | 0.6662
10000 kPa, x1 = 0.9493 | 0.3316

COC=O [methyl methanoate] + CCCO
excess molar enthalpy [kJ/mol]
Conditions | 298.15 K | 333.15 K
5000 kPa, x1 = 0.0399 | 0.328 | –
5000 kPa, x1 = 0.0788 | 0.6211 | –
5000 kPa, x1 = 0.1201 | 0.8882 | –
5000 kPa, x1 = 0.1621 | 1.116 | –
5000 kPa, x1 = 0.2066 | 1.311 | –
5000 kPa, x1 = 0.2501 | 1.469 | –
5000 kPa, x1 = 0.2944 | 1.59 | –
5000 kPa, x1 = 0.3414 | 1.681 | –
5000 kPa, x1 = 0.3893 | 1.747 | –
5000 kPa, x1 = 0.4381 | 1.777 | –
5000 kPa, x1 = 0.4878 | 1.788 | –
5000 kPa, x1 = 0.5386 | 1.764 | –
5000 kPa, x1 = 0.5903 | 1.706 | –
5000 kPa, x1 = 0.6452 | 1.605 | –
5000 kPa, x1 = 0.699 | 1.475 | –
5000 kPa, x1 = 0.7562 | 1.281 | –
5000 kPa, x1 = 0.8146 | 1.06 | –
5000 kPa, x1 = 0.8743 | 0.7735 | –
5000 kPa, x1 = 0.9376 | 0.4064 | –
10000 kPa, x1 = 0.0398 | 0.3424 | –
10000 kPa, x1 = 0.0403 | – | 0.336
10000 kPa, x1 = 0.0786 | 0.6463 | –
10000 kPa, x1 = 0.0788 | – | 0.6704
10000 kPa, x1 = 0.1197 | 0.9222 | –
10000 kPa, x1 = 0.1205 | – | 0.9868
10000 kPa, x1 = 0.1616 | 1.153 | –
10000 kPa, x1 = 0.1629 | – | 1.264
10000 kPa, x1 = 0.2061 | 1.358 | 1.497
10000 kPa, x1 = 0.2495 | 1.515 | –
10000 kPa, x1 = 0.25 | – | 1.69
10000 kPa, x1 = 0.2937 | 1.637 | –
10000 kPa, x1 = 0.2948 | – | 1.851
10000 kPa, x1 = 0.3404 | – | 1.973
10000 kPa, x1 = 0.3407 | 1.73 | –
10000 kPa, x1 = 0.3868 | – | 2.058
10000 kPa, x1 = 0.3885 | 1.792 | –
10000 kPa, x1 = 0.437 | – | 2.11
10000 kPa, x1 = 0.4373 | 1.824 | –
10000 kPa, x1 = 0.4853 | – | 2.128
10000 kPa, x1 = 0.487 | 1.823 | –
10000 kPa, x1 = 0.5374 | – | 2.098
10000 kPa, x1 = 0.5377 | 1.791 | –
10000 kPa, x1 = 0.5895 | 1.726 | –
10000 kPa, x1 = 0.5907 | – | 2.035
10000 kPa, x1 = 0.6444 | 1.621 | –
10000 kPa, x1 = 0.645 | – | 1.92
10000 kPa, x1 = 0.6983 | 1.492 | –
10000 kPa, x1 = 0.7005 | – | 1.754
10000 kPa, x1 = 0.7556 | 1.303 | –
10000 kPa, x1 = 0.7572 | – | 1.529
10000 kPa, x1 = 0.8141 | 1.07 | –
10000 kPa, x1 = 0.8151 | – | 1.267
10000 kPa, x1 = 0.8739 | 0.773 | –
10000 kPa, x1 = 0.8743 | – | 0.9357
10000 kPa, x1 = 0.9347 | – | 0.5167
10000 kPa, x1 = 0.9374 | 0.4032 | –
